Source: the supplement of paper PMC10878532, “Sperm Toolbox—A selection of small molecules to study human spermatozoa” (PLOS ONE, 2024)

Experiments:
[1] = tested on: HepG2; assay: HepG2 toxicity (resazurin), effect normalised to DMSO (DMSO = 0); higher = more features changed / larger toxic effect; conditions: incubation time: 70h incubation
[2] = tested on: HeLa; assay: HeLa toxicity: nuclei-count effect normalised to DMSO (DMSO = 0); higher = more features changed / larger toxic effect; conditions: incubation time: 24h incubation
[3] = tested on: HeLa; assay: Cell Painting percent induction (share of features beyond 2 z-scores vs DMSO); higher = more features changed / larger toxic effect; extreme values may be limits of the assay; conditions: incubation time: 24h incubation
[4] = tested on: human spermatozoa; assay: total motile sperm, percent change vs DMSO (non-capacitating); higher = more of the measured sperm population than DMSO, for viability, fewer PI-positive (dead) cells than DMSO
[5] = tested on: human spermatozoa; assay: viability fold change, 1 - (PI-positive fraction / DMSO median); higher = more of the measured sperm population than DMSO, for viability, fewer PI-positive (dead) cells than DMSO; conditions: incubation time: 3h, non-capacitating
[6] = tested on: human spermatozoa; assay: progressively motile sperm, percent change vs DMSO (capacitating); higher = more of the measured sperm population than DMSO, for viability, fewer PI-positive (dead) cells than DMSO; conditions: incubation time: 30min incubation
[7] = tested on: human spermatozoa; assay: hyperactivated motile sperm, percent change vs DMSO (capacitating); higher = more of the measured sperm population than DMSO, for viability, fewer PI-positive (dead) cells than DMSO; conditions: incubation time: 30min incubation
[8] = tested on: human spermatozoa; assay: change in acrosome-reacted (PNA+) sperm vs DMSO, no agonist (capacitating); higher = more of the measured sperm population than DMSO, for viability, fewer PI-positive (dead) cells than DMSO; conditions: incubation time: 3h
[9] = tested on: human spermatozoa; assay: acrosome-reacted (PNA+) sperm after agonist cocktail, percent change vs DMSO (capacitating); higher = more of the measured sperm population than DMSO, for viability, fewer PI-positive (dead) cells than DMSO; conditions: incubation time: 3h, capacitating + agonist cocktail 1h
[10] = tested on: human spermatozoa; assay: progressively motile sperm, percent change vs DMSO (non-capacitating); higher = more of the measured sperm population than DMSO, for viability, fewer PI-positive (dead) cells than DMSO; extreme values may be limits of the assay
[11] = incubation time: 10min incubation, 9.99 µM
[12] = incubation time: 10min incubation, 29.9 µM
[13] = incubation time: 3h incubation, 9.99 µM
[14] = incubation time: 3h incubation, 29.9 µM
[15] = incubation time: 6h incubation, 9.99 µM
[16] = incubation time: 6h incubation, 29.9 µM
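Throughout, for progressively motile sperm, percent change vs DMSO (non-capacitating): pooled live human sperm from at least 3 donors, tracked by automated microscopy in 0.5 s time-lapse movies, compounds at 10 and 30 µM, versus median of 16 DMSO wells per plate.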
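Throughout, for total motile sperm, percent change vs DMSO (non-capacitating): sperm pooled from at least 3 donors, tracked in 0.5 s time-lapse movies by automated microscopy after 10 min, 3 h or 6 h with compound at 10 or 30 µM.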

Compound: CN(c1ccccc1CNc1nc(Nc2ccc3c(c2)CC(=O)N3)ncc1C(F)(F)F)S(C)(=O)=O
- HepG2 toxicity ([1]; 10 µM): 95.1%
- HepG2 toxicity ([1]; 30 µM): 90.2%
- HeLa toxicity: nuclei-count effect normalised ([2]; 9.99 µM): 81.5%
- HeLa toxicity: nuclei-count effect normalised ([2]; 29.9 µM): 90.7%
- Cell Painting percent induction ([3]; 9.99 µM): 8.65%
- Cell Painting percent induction ([3]; 29.9 µM): 17.7%
- total motile sperm [4, 11]: -4.4%
- total motile sperm [4, 12]: -6.03%
- total motile sperm [4, 13]: -7.55%
- total motile sperm [4, 14]: -13.4%
- total motile sperm [4, 15]: -11%
- total motile sperm [4, 16]: -16.3%
- viability fold change ([5]; 9.99 µM): -1.76
- viability fold change ([5]; 29.9 µM): -1.35
- progressively motile sperm ([6]; 9.99 µM): -2.37%
- progressively motile sperm ([6]; 29.9 µM): -3.01%
- hyperactivated motile sperm ([7]; 9.99 µM): 41.5%
- hyperactivated motile sperm ([7]; 29.9 µM): -30.2%
- change in acrosome-reacted ([8]; 9.99 µM): 0.291%
- change in acrosome-reacted ([8]; 29.9 µM): 0.085%
- acrosome-reacted ([9]; 9.99 µM): -10.6%
- acrosome-reacted ([9]; 29.9 µM): -8.83%
- progressively motile sperm [10, 11]: 20.2%
- progressively motile sperm [10, 12]: 16.8%
- progressively motile sperm [10, 13]: 29.9%
- progressively motile sperm [10, 14]: 21.7%
- progressively motile sperm [10, 15]: 40.3%
- progressively motile sperm [10, 16]: 24.4%

Compound: COc1cc(N2CCOCC2)ccc1Nc1ncc(F)c(Nc2ccccc2NS(C)(=O)=O)n1
- HepG2 toxicity ([1]; 10 µM): 11.9%
- HepG2 toxicity ([1]; 30 µM): 14%
- HeLa toxicity: nuclei-count effect normalised ([2]; 9.99 µM): 12%
- HeLa toxicity: nuclei-count effect normalised ([2]; 29.9 µM): 70.3%
- Cell Painting percent induction ([3]; 9.99 µM): 0.324%
- Cell Painting percent induction ([3]; 29.9 µM): 14.1%
- total motile sperm [4, 11]: -2.71%
- total motile sperm [4, 12]: -11.9%
- total motile sperm [4, 13]: -6.38%
- total motile sperm [4, 14]: -20.1%
- total motile sperm [4, 15]: -5.57%
- total motile sperm [4, 16]: -17.4%
- viability fold change ([5]; 9.99 µM): 0.0946
- viability fold change ([5]; 29.9 µM): 0.0988
- progressively motile sperm ([6]; 9.99 µM): -10.8%
- progressively motile sperm ([6]; 29.9 µM): -4.79%
- hyperactivated motile sperm ([7]; 9.99 µM): 7.89%
- hyperactivated motile sperm ([7]; 29.9 µM): -19.1%
- change in acrosome-reacted ([8]; 9.99 µM): 0.77%
- change in acrosome-reacted ([8]; 29.9 µM): -0.256%
- acrosome-reacted ([9]; 9.99 µM): -20.4%
- acrosome-reacted ([9]; 29.9 µM): -26.8%
- progressively motile sperm [10, 11]: -27.7%
- progressively motile sperm [10, 12]: -60.9%
- progressively motile sperm [10, 13]: -32.8%
- progressively motile sperm [10, 14]: -74.5%
- progressively motile sperm [10, 15]: -27%
- progressively motile sperm [10, 16]: -69.7%

Compound: CCc1cc(Nc2nccc(-c3c(-c4ccc(OC)c(C(=O)Nc5c(F)cccc5F)c4)nc4ccccn34)n2)c(OC)cc1N1CCC(N2CCN(S(C)(=O)=O)CC2)CC1
- HepG2 toxicity ([1]; 10 µM): 3.43%
- HepG2 toxicity ([1]; 30 µM): -1.34%
- HeLa toxicity: nuclei-count effect normalised ([2]; 9.99 µM): 4.68%
- HeLa toxicity: nuclei-count effect normalised ([2]; 29.9 µM): -3.87%
- Cell Painting percent induction ([3]; 9.99 µM): 0%
- Cell Painting percent induction ([3]; 29.9 µM): 0.036%
- total motile sperm [4, 11]: -4.19%
- total motile sperm [4, 12]: -0.876%
- total motile sperm [4, 13]: -8.85%
- total motile sperm [4, 14]: -6.8%
- total motile sperm [4, 15]: -6.63%
- total motile sperm [4, 16]: -13%
- viability fold change ([5]; 9.99 µM): 0.344
- viability fold change ([5]; 29.9 µM): 0.176
- progressively motile sperm ([6]; 9.99 µM): -19.6%
- progressively motile sperm ([6]; 29.9 µM): -24.3%
- hyperactivated motile sperm ([7]; 9.99 µM): -15.3%
- hyperactivated motile sperm ([7]; 29.9 µM): -19%
- change in acrosome-reacted ([8]; 9.99 µM): 0.271%
- change in acrosome-reacted ([8]; 29.9 µM): -0.0593%
- acrosome-reacted ([9]; 9.99 µM): -8.69%
- acrosome-reacted ([9]; 29.9 µM): 2.76%
- progressively motile sperm [10, 11]: 4.67%
- progressively motile sperm [10, 12]: 2.77%
- progressively motile sperm [10, 13]: 36.3%
- progressively motile sperm [10, 14]: 31.8%
- progressively motile sperm [10, 15]: 50.7%
- progressively motile sperm [10, 16]: 33.6%

Compound: O=C(c1cccs1)c1no[n+]([O-])c1C(=O)c1cccs1
- HepG2 toxicity ([1]; 10 µM): 103%
- HepG2 toxicity ([1]; 30 µM): 103%
- HeLa toxicity: nuclei-count effect normalised ([2]; 9.99 µM): 36.5%
- HeLa toxicity: nuclei-count effect normalised ([2]; 29.9 µM): 82%
- Cell Painting percent induction ([3]; 9.99 µM): 0.216%
- Cell Painting percent induction ([3]; 29.9 µM): 14.3%
- total motile sperm [4, 11]: 1.03%
- total motile sperm [4, 12]: 2.49%
- total motile sperm [4, 13]: -13.1%
- total motile sperm [4, 14]: -40.1%
- total motile sperm [4, 15]: -30.5%
- total motile sperm [4, 16]: -54.9%
- viability fold change ([5]; 9.99 µM): -0.427
- viability fold change ([5]; 29.9 µM): -1.21
- progressively motile sperm ([6]; 9.99 µM): 0.304%
- progressively motile sperm ([6]; 29.9 µM): -15.7%
- hyperactivated motile sperm ([7]; 9.99 µM): -32.4%
- hyperactivated motile sperm ([7]; 29.9 µM): -81.3%
- change in acrosome-reacted ([8]; 9.99 µM): 1.47%
- change in acrosome-reacted ([8]; 29.9 µM): 2.4%
- acrosome-reacted ([9]; 9.99 µM): -24.1%
- acrosome-reacted ([9]; 29.9 µM): -23.9%
- progressively motile sperm [10, 11]: -17%
- progressively motile sperm [10, 12]: -39.6%
- progressively motile sperm [10, 13]: -29.1%
- progressively motile sperm [10, 14]: -78.3%
- progressively motile sperm [10, 15]: -50.4%
- progressively motile sperm [10, 16]: -91.5%
